The source made the active and inactive calls.
How the values were obtained:
NS3 = NS3 (Hepatitis C virus, UniProt A3EZJ3); assay: PubChem AID 2173; set-up: species or system Hepacivirus hominis
Leucine aminopeptidase = molecular target: T1, Leucine aminopeptidase (Plasmodium falciparum 3D7, UniProt Q8IL11); assay: P. falciparum M17LAP inhibitors, primary screen, biochemical, fluorogenic H-Leu-NHMec substrate, 1536-well (AID 1619); format: functional
T1 sequence (Q8IL11 whole entry): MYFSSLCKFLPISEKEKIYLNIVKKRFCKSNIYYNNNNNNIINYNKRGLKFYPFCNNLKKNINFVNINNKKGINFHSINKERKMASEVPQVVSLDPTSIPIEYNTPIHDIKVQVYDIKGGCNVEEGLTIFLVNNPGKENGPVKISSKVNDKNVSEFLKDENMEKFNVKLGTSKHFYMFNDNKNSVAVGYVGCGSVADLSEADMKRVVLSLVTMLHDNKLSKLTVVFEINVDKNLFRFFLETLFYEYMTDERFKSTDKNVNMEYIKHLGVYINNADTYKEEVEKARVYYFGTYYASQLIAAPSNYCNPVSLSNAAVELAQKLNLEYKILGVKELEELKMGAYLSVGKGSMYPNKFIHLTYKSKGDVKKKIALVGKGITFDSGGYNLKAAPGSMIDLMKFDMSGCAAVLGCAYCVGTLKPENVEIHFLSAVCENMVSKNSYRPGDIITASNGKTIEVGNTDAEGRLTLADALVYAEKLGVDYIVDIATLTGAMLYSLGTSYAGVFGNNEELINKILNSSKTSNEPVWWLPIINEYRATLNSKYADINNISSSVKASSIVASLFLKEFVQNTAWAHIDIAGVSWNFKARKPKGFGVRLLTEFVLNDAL

[1] = Luminescence Cell-Based Dose Response HTS to Identify Inhibitors of 5'UTR Stem-Loop Driven Prion Protein mRNA Translation in H4 Neuroglioblastoma Cells. [Related pubchem assays: 1827 (Project Summary), 1813 (Primary HTS)]; format: functional
[2] = luciferase reporter signal reduction – luminescence, H4-C neuroglioblastoma cells, dose response (AID 2458); format: functional, cell-based;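 further: H4 neuroglioblastoma cells stably carrying a luciferase reporter gene fusion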
cells [3] = format: functional, cell-based
[4] = inhibitors of firefly luciferase expression or activity, dose response, H4 neuroglioma cells, luminescence (AID 1990); format: functional, cell-based
[5] = inhibitors of SNCA 5'UTR-driven translation, confirmation, luminescence, H4 neuroglioblastoma cells, dose confirmation (AID 2454); format: functional, cell-based;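 further: H4 neuroglioblastoma cells carrying an alpha-synuclein 5'UTR luciferase reporter; potency for inhibition of the luciferase signal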
[6] = inhibitors of SNCA 5'UTR-driven reporter translation, confirmation, H4 neuroglioma cells, luminescence (AID 1988); format: functional, cell-based
[7] = molecular target: T2, Short transient receptor potential channel 4 (Mus musculus, UniProt Q9QUQ5); assay: mouse TRPC4 channel inhibitors, dose response, cell-based, HEK293 TRPC4/mu-opioid, Fluo-4 calcium (AID 434942); format: functional;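 further: potency of inhibitors blocking the TRPC4 calcium response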
T2 sequence (Q9QUQ5 whole entry): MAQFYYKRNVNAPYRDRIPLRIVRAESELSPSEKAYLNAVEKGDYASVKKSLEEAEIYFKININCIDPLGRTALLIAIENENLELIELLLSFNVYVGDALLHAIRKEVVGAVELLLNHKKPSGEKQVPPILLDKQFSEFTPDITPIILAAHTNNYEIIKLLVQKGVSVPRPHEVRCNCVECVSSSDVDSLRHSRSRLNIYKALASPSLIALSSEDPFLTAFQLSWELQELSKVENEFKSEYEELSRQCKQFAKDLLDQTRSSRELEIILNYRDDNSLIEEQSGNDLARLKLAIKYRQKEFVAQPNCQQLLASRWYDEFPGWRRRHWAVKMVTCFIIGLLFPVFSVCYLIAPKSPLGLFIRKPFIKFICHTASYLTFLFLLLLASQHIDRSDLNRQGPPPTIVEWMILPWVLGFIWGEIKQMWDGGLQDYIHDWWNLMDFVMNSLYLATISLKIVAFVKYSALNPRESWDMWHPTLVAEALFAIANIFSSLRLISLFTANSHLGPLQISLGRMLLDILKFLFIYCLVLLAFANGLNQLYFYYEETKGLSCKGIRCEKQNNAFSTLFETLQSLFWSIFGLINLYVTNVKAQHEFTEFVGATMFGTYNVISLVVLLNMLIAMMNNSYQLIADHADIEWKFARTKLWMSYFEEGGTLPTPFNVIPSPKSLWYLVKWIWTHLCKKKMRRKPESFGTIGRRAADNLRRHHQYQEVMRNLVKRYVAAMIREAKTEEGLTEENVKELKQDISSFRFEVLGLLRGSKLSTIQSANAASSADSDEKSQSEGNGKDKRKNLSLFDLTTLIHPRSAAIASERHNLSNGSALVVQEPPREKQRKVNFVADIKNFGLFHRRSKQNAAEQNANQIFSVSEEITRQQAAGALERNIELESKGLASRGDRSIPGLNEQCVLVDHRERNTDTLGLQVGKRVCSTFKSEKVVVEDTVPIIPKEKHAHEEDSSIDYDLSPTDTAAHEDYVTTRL

cells [8] = format: functional, cell-based; remark: listed apart in the source
[9] = molecular target: T3, Nuclear receptor subfamily 0 group B member 1 (Homo sapiens, UniProt P51843); format: functional, cell-based;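 further: HEK293T cells transfected with SF-1 and DAX-1 plus StAR promoter luciferase reporter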
T3 sequence (P51843 whole entry): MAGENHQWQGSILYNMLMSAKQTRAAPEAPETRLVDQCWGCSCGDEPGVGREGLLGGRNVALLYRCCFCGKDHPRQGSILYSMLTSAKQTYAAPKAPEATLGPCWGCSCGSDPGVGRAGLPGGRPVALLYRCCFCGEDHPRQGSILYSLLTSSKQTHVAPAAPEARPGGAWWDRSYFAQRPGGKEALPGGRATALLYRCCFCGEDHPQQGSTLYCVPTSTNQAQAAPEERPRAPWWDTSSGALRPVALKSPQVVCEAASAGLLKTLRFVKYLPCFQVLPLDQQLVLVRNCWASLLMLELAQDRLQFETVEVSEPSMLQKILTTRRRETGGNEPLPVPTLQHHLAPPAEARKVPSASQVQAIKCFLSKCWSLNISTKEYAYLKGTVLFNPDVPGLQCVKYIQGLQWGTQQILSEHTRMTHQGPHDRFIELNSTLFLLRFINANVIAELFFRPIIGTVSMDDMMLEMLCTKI

BJ [10] = assay: cytotoxicity toward BJ-TERT-LT-ST fibroblasts, dose response, cell-based, RAS-independent, luminescence (AID 1935); format: functional; settings: Homo sapiens;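 further: BJ fibroblasts immortalized with TERT plus LT and ST oncogenes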
[11] = cytotoxicity in HEK-293T cells, dose response, cytotoxicity control for TCR NF-kB inhibitor project, luminescence, T-cell screen hits (AID 489026); format: functional, cell-based;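 further: cells exposed to compound about 14 hours before the viability readout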
[12] = cytotoxicity toward DRD oncogenic fibroblasts, dose response, cell-based, non-viral oncogenic, luminescence (AID 1934); format: functional; settings: Homo sapiens
BJ [13] = assay: cytotoxicity toward BJ-TERT fibroblasts, dose response, cell-based, RAS-independent, luminescence (AID 1933); format: functional; settings: Homo sapiens
Paired box protein Pax-8 = Paired box protein Pax-8 (Homo sapiens, UniProt Q06710); assay: inhibitors of PAX8-driven TPO luciferase reporter, dose response, RMG-I cells, cherry-pick (AID 687027); format: functional, cell-based;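 further: luciferase reporter driven by Pax8 target thyroperoxidase promoter measured by SteadyGlo luminescence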
Sequence of Paired box protein Pax-8 (Q06710 whole entry): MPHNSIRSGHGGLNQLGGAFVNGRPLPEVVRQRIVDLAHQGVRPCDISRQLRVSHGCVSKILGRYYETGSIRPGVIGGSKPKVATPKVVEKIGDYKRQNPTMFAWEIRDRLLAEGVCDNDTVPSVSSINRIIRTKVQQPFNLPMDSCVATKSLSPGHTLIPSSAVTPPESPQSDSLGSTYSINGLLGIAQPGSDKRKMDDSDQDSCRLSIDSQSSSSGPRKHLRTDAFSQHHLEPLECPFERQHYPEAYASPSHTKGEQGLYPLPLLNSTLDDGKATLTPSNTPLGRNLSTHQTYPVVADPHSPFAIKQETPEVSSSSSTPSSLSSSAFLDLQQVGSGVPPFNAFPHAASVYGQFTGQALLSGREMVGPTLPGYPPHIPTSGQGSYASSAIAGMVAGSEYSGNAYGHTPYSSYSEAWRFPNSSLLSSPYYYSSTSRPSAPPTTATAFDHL

BJ [14] = assay: cells; format: functional, cell-based; settings: Homo sapiens
[15] = molecular target: Luciferin 4-monooxygenase (Photinus pyralis, UniProt P08659); assay: Counter Screen for Luciferase-based Assay Positives. [Related pubchem assays: 620, 618, 411 ]
Sequence of Luciferin 4-monooxygenase (P08659 whole entry): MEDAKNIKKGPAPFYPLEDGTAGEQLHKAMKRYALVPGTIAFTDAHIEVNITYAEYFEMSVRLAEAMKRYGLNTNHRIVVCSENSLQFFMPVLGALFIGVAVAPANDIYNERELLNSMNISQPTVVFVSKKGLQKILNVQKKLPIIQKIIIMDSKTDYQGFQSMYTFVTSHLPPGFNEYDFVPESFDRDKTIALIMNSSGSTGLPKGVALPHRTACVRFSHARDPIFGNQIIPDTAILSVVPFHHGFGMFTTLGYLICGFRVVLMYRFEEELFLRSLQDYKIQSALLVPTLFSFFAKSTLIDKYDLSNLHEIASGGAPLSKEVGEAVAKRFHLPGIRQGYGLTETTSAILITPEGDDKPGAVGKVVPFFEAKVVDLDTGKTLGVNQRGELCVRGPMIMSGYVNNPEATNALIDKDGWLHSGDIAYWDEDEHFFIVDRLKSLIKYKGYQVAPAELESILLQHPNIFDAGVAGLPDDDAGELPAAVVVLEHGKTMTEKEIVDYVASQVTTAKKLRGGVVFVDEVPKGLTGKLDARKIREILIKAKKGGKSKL

[16] = molecular target: T4, Microphthalmia-associated transcription factor (Homo sapiens, UniProt O75030); assay: TRPM1 promoter luciferase signal decrease, dose response, MITF inhibitor project, cell-based, SK-MEL-5, cherry-picked, set 3 (AID 493073); format: functional
T4 sequence (O75030 whole entry): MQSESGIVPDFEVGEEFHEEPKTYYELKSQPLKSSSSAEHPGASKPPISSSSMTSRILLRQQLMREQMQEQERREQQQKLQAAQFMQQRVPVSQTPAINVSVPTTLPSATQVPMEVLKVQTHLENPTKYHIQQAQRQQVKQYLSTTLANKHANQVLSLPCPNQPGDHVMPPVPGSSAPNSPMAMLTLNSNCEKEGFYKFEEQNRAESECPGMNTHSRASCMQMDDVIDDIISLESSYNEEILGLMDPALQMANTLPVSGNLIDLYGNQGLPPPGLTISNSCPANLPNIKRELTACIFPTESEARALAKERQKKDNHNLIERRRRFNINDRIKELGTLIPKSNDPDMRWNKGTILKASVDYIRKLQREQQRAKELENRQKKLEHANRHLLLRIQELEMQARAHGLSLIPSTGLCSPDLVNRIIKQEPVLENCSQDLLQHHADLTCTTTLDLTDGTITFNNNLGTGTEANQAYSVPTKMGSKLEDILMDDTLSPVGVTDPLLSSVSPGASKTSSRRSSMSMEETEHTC

cells [17] = assay: cells
[18] = HEp-2 cell cytotoxicity, dose response, cytotoxicity control for RSV inhibitor project, HTS (AID 2410); format: functional; settings: human respiratory syncytial virus
[19] = cytotoxicity in HEK-293T cells, dose response, cytotoxicity control for BCR NF-kB inhibitor project, luminescence, B-cell screen hits (AID 489021); format: functional, cell-based;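 further: HEK-293T cells carrying an NF-kB luciferase reporter; cells exposed to compound for about 14 hours before viability readout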
[20] = ZM109 Env clade C HIV-1 fusion inhibitors, dose response, HeLa effector, CEM target cells, luciferase, cherry-pick (AID 652058); format: functional, cell-based
[21] = inhibitors of clade B AD8 Env fusion, dose response, cell-based, cherry-pick (AID 652062); format: functional;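 further: luciferase signal from cell-cell fusion driven by HIV-1 clade B AD8 Env; potency is for inhibitors of fusion seen as a drop in luminescence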
HT-1080 = assay: cytotoxicity in HT1080 fibrosarcoma cells, cell-based, fluorescence readout (AID 620); format: functional; settings: Homo sapiens
[22] = off-target signal loss in HeLa-CEM21 co-culture – HeLa F-luc CTL cells, cherry-picked, counter-screen for HIV-1 Env fusion inhibitor project, dose response (AID 652040); format: functional, cell-based;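 further: potency for signal decrease marking cytotoxic or nonspecific inhibition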
[23] = inhibitors of HIV Env-driven cell fusion, dose response, cherry-pick (AID 652057); format: functional, cell-based
Bcl-2-like protein 10 = Bcl-2-like protein 10 (Homo sapiens, UniProt Q9HD36); assay: displacers of TR3 peptide from Bcl-B, primary screen, selectivity assay for Bfl-1 inhibitor project, biochemical, fluorescence polarization, FITC-TR3 peptide (AID 748);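 further: fluorescence polarization from a fluorescein-labelled TR3 peptide binding purified Bcl-B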
Sequence of Bcl-2-like protein 10 (Q9HD36 whole entry): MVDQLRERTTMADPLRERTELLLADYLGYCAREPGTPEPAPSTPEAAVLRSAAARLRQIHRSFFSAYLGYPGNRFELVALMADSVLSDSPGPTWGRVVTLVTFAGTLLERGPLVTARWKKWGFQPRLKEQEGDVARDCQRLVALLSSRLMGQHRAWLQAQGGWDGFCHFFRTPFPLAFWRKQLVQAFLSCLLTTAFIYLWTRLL

Large T antigen = Large T antigen (Simian virus 40, UniProt P03070); format: functional, Betapolyomavirus macacae;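 further: Confirmatory-stage PubChem screen for compounds that inhibit SV40 T antigen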
Sequence of Large T antigen (P03070 whole entry): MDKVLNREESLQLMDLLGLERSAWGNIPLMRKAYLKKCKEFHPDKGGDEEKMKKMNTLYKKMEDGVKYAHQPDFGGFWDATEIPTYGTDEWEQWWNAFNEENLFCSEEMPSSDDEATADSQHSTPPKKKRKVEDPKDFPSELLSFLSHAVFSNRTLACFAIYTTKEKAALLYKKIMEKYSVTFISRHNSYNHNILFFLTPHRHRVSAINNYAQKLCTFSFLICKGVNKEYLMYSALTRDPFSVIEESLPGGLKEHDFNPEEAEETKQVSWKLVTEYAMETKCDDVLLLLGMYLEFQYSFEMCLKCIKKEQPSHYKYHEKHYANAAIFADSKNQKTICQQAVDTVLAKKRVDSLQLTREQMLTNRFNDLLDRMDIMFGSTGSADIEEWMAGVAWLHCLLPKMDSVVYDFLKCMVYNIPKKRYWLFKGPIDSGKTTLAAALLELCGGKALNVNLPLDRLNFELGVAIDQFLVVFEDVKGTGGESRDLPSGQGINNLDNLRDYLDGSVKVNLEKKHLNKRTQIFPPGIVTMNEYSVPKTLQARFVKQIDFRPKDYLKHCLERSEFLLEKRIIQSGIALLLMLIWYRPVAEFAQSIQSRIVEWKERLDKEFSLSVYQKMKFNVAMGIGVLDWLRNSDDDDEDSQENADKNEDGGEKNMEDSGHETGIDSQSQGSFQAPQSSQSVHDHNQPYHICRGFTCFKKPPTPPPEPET

[24] = molecular target: T5, Long-chain-fatty-acid--AMP ligase FadD28 (Mycobacterium tuberculosis, UniProt P9WQ59); assay: Fluorescence polarization aasay to screen for inhibitors that compete for the binding of FadD28 to a bisubstrate Measured in Biochemical System Using Plate Reader - 2147-01_Inhibitor_Dose_CherryPick_Activity.; format: functional, Mycobacterium tuberculosis H37Rv
T5 sequence (P9WQ59 whole entry): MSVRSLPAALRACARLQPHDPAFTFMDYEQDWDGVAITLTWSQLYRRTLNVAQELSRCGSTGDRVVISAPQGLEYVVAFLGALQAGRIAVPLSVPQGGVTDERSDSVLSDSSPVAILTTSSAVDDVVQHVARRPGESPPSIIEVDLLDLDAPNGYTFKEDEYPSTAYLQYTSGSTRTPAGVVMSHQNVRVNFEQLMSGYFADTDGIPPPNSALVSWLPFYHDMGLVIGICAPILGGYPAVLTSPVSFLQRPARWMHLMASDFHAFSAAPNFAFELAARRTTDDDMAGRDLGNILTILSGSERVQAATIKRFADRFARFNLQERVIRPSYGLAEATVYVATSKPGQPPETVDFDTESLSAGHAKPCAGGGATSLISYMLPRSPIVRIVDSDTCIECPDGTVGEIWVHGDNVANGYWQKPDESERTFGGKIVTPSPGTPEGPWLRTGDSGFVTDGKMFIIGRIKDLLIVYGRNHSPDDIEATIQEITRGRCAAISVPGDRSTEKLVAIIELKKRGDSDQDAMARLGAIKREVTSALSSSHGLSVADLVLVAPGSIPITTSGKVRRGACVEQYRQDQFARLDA

Sequence of NS3 (A3EZJ3 whole entry): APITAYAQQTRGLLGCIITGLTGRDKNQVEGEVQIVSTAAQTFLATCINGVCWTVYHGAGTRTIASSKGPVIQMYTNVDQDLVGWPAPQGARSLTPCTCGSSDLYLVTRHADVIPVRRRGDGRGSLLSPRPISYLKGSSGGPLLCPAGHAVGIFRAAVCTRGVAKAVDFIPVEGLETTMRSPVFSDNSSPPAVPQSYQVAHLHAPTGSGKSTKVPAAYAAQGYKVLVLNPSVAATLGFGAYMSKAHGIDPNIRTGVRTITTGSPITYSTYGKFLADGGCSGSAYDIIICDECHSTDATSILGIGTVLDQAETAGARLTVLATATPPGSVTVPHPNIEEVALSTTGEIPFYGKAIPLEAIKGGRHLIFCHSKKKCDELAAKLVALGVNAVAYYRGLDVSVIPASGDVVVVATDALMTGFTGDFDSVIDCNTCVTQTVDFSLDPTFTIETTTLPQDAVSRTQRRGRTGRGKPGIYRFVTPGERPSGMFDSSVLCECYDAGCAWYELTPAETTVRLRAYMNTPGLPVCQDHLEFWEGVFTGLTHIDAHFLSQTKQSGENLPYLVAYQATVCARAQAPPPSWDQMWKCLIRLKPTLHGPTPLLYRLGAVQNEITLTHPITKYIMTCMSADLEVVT

SMILES: N#C/C(=C\c1ccc(O)c(O)c1)S(=O)(=O)c1ccccc1
- IC50 (NS3): 4.39 µM (active)
- IC50 (Leucine aminopeptidase): 7.23 µM (active)

SMILES: O=C(CSc1nnc(-c2ccc(Br)cc2)o1)Nc1cccc(C(=O)O)c1
- EC50 [1]: < 0.1 µM (active)
- EC50 [2]: 0.31 µM (active)
- EC50 (cells [3]): 0.934 µM (active)
- EC50 [4]: 3.04 µM (active)
- EC50 [5]: 0.409 µM (active)
- EC50 [6]: < 0.1 µM (active)

SMILES: CCc1cccc(OCC(=O)Nc2ccc(C(=O)O)cc2NC(=O)COc2cccc(CC)c2)c1
- EC50 [7]: 11.9 µM (active)

SMILES: COc1ccc(NC(=O)C(=O)NCC2CCCN2S(=O)(=O)c2ccc(C)cc2)cc1 (stereo unspecified)
- IC50 (cells [8]): > 67.5 µM (inactive)
- IC50 [9]: > 67.5 µM (inactive)
- EC50 (BJ [10]): 0.611 µM (active)
- EC50 [2]: 0.051 µM (active)
- IC50 [11]: > 80 µM (inactive)
- EC50 [12]: 0.484 µM (active)
- EC50 (BJ [13]): 0.625 µM (active)
- AC50 (Paired box protein Pax-8): 0.709 µM (active)
- EC50 (cells [3]): 0.06 µM (active)
- EC50 [4]: < 0.1 µM (active)
- EC50 [5]: 0.047 µM (active)
- EC50 (BJ [14]): 11.7 µM (inconclusive)
- EC50 [6]: < 0.1 µM (active)

SMILES: N#Cc1c(NC(=O)CSc2nnc[nH]2)sc2c1CCCC2
- EC50 [15]: 27.8 µM (active)
- IC50 (Leucine aminopeptidase): 4.79 µM (active)
- AC50 [16]: 0.599 µM (active)

SMILES: CCCN1C2=NCCN2c2cc(C)c(C)cc21
- EC50 [7]: 5.96 µM (active)

SMILES: COc1ccc(C(c2c(NC(=O)c3ccco3)sc(C)c2C)N2CCOCC2)cc1OC (stereo unspecified)
- IC50 (cells [17]): 4.07 µM (active)
- CC50 [18]: 46.5 µM (active)

SMILES: COc1ccc(-c2noc(CCCC(=O)O)n2)cc1
- IC50 [19]: > 80 µM (inactive)
- EC50 [15]: 3.3 µM (active)
- AC50 [20]: 1.08 µM (active)
- AC50 [21]: 1.1 µM (active)
- EC50 (HT-1080): > 50 µM (not active)
- AC50 [22]: 1.59 µM (active)
- AC50 [23]: 2.26 µM (active)

SMILES: Cc1c[nH]c2cccc(OCC(O)CNC(C)(C)C)c12 (stereo unspecified)
- IC50 (Bcl-2-like protein 10): > 100 µM (inactive)

SMILES: O=c1c2c(O)cc(CSc3ccc(Cl)cc3)nc2[nH]n1-c1ccccc1
- IC50 (NS3): 5.22 µM (active)
- IC50 (Large T antigen): > 100 µM (active)
- AC50 [24]: 23.4 µM (active)

SMILES: Cc1cc(O)nc(N/N=C/c2c(C)nn(-c3ccccc3Cl)c2Cl)n1
- IC50 (cells [17]): 41.5 µM (active)
- CC50 [18]: 21.2 µM (active)

From ChEMBL document CHEMBL1201862, “PubChem BioAssay data set” (2004)
